This note sets out measurements from patent US11426397B2, “Piperidinyl- and piperazinyl-substituted heteroaromatic carboxamides as modulators of GPR6” (TAKEDA PHARMACEUTICAL COMPANY LIMITED, priority 2017, dated 2022).

T1 sequence (P46095 whole entry): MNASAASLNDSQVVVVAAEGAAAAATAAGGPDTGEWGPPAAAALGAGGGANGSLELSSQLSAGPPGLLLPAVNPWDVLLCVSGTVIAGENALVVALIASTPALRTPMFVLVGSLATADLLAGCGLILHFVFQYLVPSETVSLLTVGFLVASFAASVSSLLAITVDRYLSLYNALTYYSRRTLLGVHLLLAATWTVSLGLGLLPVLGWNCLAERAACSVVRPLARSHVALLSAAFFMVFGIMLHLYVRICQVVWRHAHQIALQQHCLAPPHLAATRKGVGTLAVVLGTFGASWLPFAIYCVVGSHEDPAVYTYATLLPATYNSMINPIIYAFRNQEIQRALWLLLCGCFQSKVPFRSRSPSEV

This test has as its target T1, GPR6 receptor expressed in CHO-K1 cells (Homo sapiens, UniProt P46095).
T1 construct: expressed in transfected cells
The test is described as follows: In vitro inhibition of cAMP (EC50), cell-based HTRF cAMP assay. The conditions noted are these: inhibition of constitutive cAMP activity of GPR6 in CHO-K1 cells. An outline of the steps: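 Cellular cAMP measured by Lance Ultra HTRF (Eu-cAMP tracer, ULight anti-cAMP), with EC50 fitted by four-parameter logistic. Test compounds sat on cells 45 min, 37 °C, in pH 7.4 Ringer's with 300 μM IBMX and 0.5% BSA; GPR6 in CHO-K1 induced beforehand by doxycycline, 2 μg/mL, 20 h.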
For orientation: In TR-FRET formats the signal depends on donor and acceptor labels being close together.
Regarding `[2H]C([2H])([2H])N(C(=O)c1cc(N2CCC(Oc3ccc(F)cc3F)CC2)c(NC(=O)c2cccnc2OC)cn1)C([2H])([2H])[2H]` [Example 22, 4-(4-(2,4-difluorophenoxy)piperidin-1-yl)-5-(2-methoxynicotinamido)-N,N-bis(methyl-d3)picolinamide], the “pEC50, in vitro inhibition of cAMP” value is recorded as 7.1. For `COc1ncc(F)cc1C(=O)Nc1ccc(C#N)nc1N1CCC(Oc2ccc(F)cc2F)CC1` [Example 255, N-(6-cyano-2-(4-(2,4-difluorophenoxy)piperidin-1-yl)pyridin-3-yl)-5-fluoro-2-methoxynicotinamide] the value was 7.3; for `COc1ncc(F)cc1C(=O)Nc1cc(C#N)ccc1N1CCC(Oc2ccc(F)cc2F)CC1` [Example 224, N-(5-cyano-2-(4-(2,4-difluorophenoxy)piperidin-1-yl)phenyl)-5-fluoro-2-methoxynicotinamide], 7.3. In the case of `COc1nn(C)cc1C(=O)Nc1cc(C#N)cnc1N1CCN(Cc2ccc(F)c(C#N)c2)CC1` [Example 154, N-(5-cyano-2-(4-(3-cyano-4-fluorobenzyl)piperazin-1-yl)pyridin-3-yl)-3-methoxy-1-methyl-1H-pyrazole-4-carbonamide], the “pEC50, in vitro inhibition of cAMP” value came out at 6.5.

For the compound `COc1ncccc1C(=O)Nc1cc(CNC(C)=O)cnc1N1CCC(Oc2ccc(F)cc2F)CC1` [Example 64, N-(5-(acetamidomethyl)-2-(4-(2,4-difluorophenoxy)piperidin-1-yl)pyridin-3-yl)-2-methoxynicotinamide], the “pEC50, in vitro inhibition of cAMP” value came out at 7.0. On to `COc1c(C)cc(Cl)cc1C(=O)Nc1cc(C#N)ccc1N1CCC(Oc2ccc(F)cc2F)CC1` [Example 195], for which the “pEC50, in vitro inhibition of cAMP” value came to 5.9.

Turning to `Cc1nc(C(=O)Nc2cc(C#N)ccc2N2CCC(Oc3ccc(F)cc3F)CC2)cs1` [Example 105], the “pEC50, in vitro inhibition of cAMP” value is on record as 7.0. For `COc1ncccc1C(=O)Nc1cc(C#N)ccc1N1CCC(C(OC)c2ccc(F)cc2)CC1` (centres unmarked) [Example 96, N-(5-cyano-2-(4-((4-fluorophenyl)(methoxy)methyl)piperidin-1-yl)phenyl)-2-methoxynicotinamide] the value was 6.5; for `COc1nn(C)cc1C(=O)Nc1cc(C#N)cnc1N1CCN(Cc2c(F)cc(F)c(OC)c2F)CC1` [Example 171, N-(5-cyano-2-(4-(2,4,6-trifluoro-3-methoxybenzyl)piperazin-1-yl)pyridin-3-yl)-3-methoxy-1-methyl-1H-pyrazole-4-carboxamide], 6.6; for `COc1nn(C)cc1C(=O)Nc1cc(C#N)cnc1N1CCN(Cc2ccccc2OC(F)F)CC1` [Example 163, N-(5-cyano-2-(4-(2-(difluoromethoxy)benzyl)piperazin-1-yl)pyridin-3-yl)-3-methoxy-1-methyl-1H-pyrazole-4-carboxamide], 6.7.

In the case of `Cc1ccc(SC2CCN(c3ncc(C#N)cc3NC(=O)c3ccccn3)CC2)cc1` [Example 69, N-(5-cyano-2-(4-(p-tolylthio)piperidin-1-yl)pyridin-3-yl)picolinamide], the “pEC50, in vitro inhibition of cAMP” value is given as 6.7. For `Cn1cccc(C(=O)Nc2cc(C#N)ccc2N2CCC(Oc3cc(F)cnc3F)CC2)c1=O` [Example 292, N-(5-cyano-2-(4-((2,5-difluoropyridin-3-yl)oxy)piperidin-1-yl)phenyl)-1-methyl-2-oxo-1,2-dihydropyridine-3-carboxamide] the value was 6.6. For `COc1ccc(OC2CCN(c3ccc(S(C)(=O)=O)cc3NC(=O)c3cn(CCF)nc3OC)CC2)c(F)c1` [Example 1, V-(2-(4-(2-fluoro-4-methoxyphenoxy)piperidin-1-yl)-5-(methylsulfonyl)phenyl)-1-(2-fluoroethyl)-3-methoxy-1H-pyrazole-4-carboxamide] the value was 7.2. With `COc1cccnc1C(=O)Nc1cc(C#N)ccc1N1CCC(Oc2ccc(F)cc2F)CC1` [Example 26, N-(5-cyano-2-(4-(2,4-difluorophenoxy)piperidin-1-yl)phenyl)-3-methoxypicolinamide], the “pEC50, in vitro inhibition of cAMP” value is recorded as 6.4.

Consider `Cc1cc(=O)c(C(=O)Nc2cc(C#N)ccc2N2CCC(Oc3ccc(F)cc3F)CC2)cn1C` [Example 24, N-(5-cyano-2-(4-(2,4-difluorophenoxy)piperidin-1-yl)phenyl)-1,6-dimethyl-4-oxo-1,4-dihydropyridine-3-carboxamide], for which the “pEC50, in vitro inhibition of cAMP” value was 6.2.

`COc1cc(N2CCC(Oc3ccc(F)cc3F)CC2)c(NC(=O)c2cnccc2OC)cn1` [Example 21, N-(4-(4-(2,4-difluorophenoxy)piperidin-1-yl)-6-methoxypyridin-3-yl)-4-methoxynicotinamide]: the “pEC50, in vitro inhibition of cAMP” value stood at 7.4. As for `COc1cccc(S(=O)(=O)C2CCN(c3ccc(C#N)cc3NC(=O)c3cn(C)nc3OC)CC2)c1` [Example 98, N-(5-cyano-2-(4-((3-methoxyphenyl)sulfonyl)piperidin-1-yl)phenyl)-3-methoxy-1-methyl-1H-pyrazole-4-carboxamide], the “pEC50, in vitro inhibition of cAMP” value is recorded as 6.4. For the compound `Cn1cccc(C(=O)Nc2cc(C#N)ccc2N2CCC(C(F)(F)c3cc(F)ccc3F)CC2)c1=O` [Example 88, N-(5-cyano-2-(4-((2,5-difluorophenyl)difluoromethyl)piperidin-1-yl)phenyl)-1-methyl-2-oxo-1,2-dihydropyridine-3-carboxamide], the “pEC50, in vitro inhibition of cAMP” value was 6.4. As for `COc1nn(C)cc1C(=O)Nc1cc(C#N)cnc1N1CCN(Cc2c(F)cc(F)cc2F)CC1` [Example 173, N-(5-cyano-2-(4-(2,4,6-trifluorobenzyl)piperazin-1-yl)pyridin-3-yl)-3-methoxy-1-methyl-1H-pyrazole-4-carboxamide], the “pEC50, in vitro inhibition of cAMP” value came to 6.8. Under `COc1cnccc1C(=O)Nc1cc(C#N)ccc1N1CCC(Oc2ccc(F)cc2F)CC1` [Example 25, N-(5-cyano-2-(4-(2,4-difluorophenoxy)piperidin-1-yl)phenyl)-3-methoxyisonicotinamide] stands 7.0; under `COc1nc(C)cc(C)c1C(=O)Nc1cc(C#N)ccc1N1CCC(Oc2ccc(F)cc2F)CC1` [Example 80, N-(5-cyano-2-(4-(2,4-difluorophenoxy)piperidin-1-yl)phenyl)-2-methoxy-4,6-dimethylnicotinamide], 6.3.

Take `COc1ncccc1C(=O)Nc1cc(C#N)ccc1N1CCN(Cc2c(F)cccc2Cl)CC1` [Example 71]: the “pEC50, in vitro inhibition of cAMP” value came out at 6.5. Under `N#Cc1ccc(N2CCC(Oc3ccc(F)cc3F)CC2)c(NC(=O)c2cc3cccn3cn2)c1` [Example 48, N-(5-cyano-2-(4-(2,4-difluorophenoxy)piperidin-1-yl)phenyl)pyrrolo[1,2-c]pyrimidine-3-carboxamide] stands 6.8; under `COc1ncccc1C(=O)Nc1cc(C#N)ccc1N1CCN(Cc2cccc(F)c2F)CC1` [Example 243, N-(5-cyano-2-(4-(2,3-difluorobenzyl)piperazin-1-yl)phenyl)-2-methoxynicotinamide], 6.5; under `CN(C(=O)c1ccccc1O)c1ccccc1N1CCN(C(=O)c2ccc(Cl)cc2)CC1` [Example 260], 4.9. As for `COc1c(C(=O)Nc2ccc(C)nc2N2CCN(Cc3ccc(F)cc3)CC2)cnn1C` [Example 103, N-(2-(4-(4-fluorobenzyl)piperazin-1-yl)-6-methylpyridin-3-yl)-5-methoxy-1-methyl-1H-pyrazole-4-carboxamide], the “pEC50, in vitro inhibition of cAMP” value turned out to be 6.5. For `COc1nc(C)ccc1C(=O)Nc1cnc(C)nc1N1CCC(Oc2ccc(F)cc2F)CC1` [Example 74, N-(4-(4-(2,4-difluorophenoxy)piperidin-1-yl)-2-methylpyrimidin-5-yl)-2-methoxy-6-methylnicotinamide] the value was 7.1. Under `Cc1ccc(NC(=O)c2cc(F)cnc2O)c(N2CCN(Cc3ccc(F)cc3)CC2)n1` [Example 101, 5-fluoro-N-(2-(4-(4-fluorobenzyl)piperazin-1-yl)-6-methylpyridin-3-yl)-2-hydroxynicotinamide] stands 5.9; under `COc1ncccc1C(=O)Nc1cc(C#N)ccc1N1CCN(Cc2ncc(F)cc2F)CC1` [Example 290], 6.5; under `COc1ncccc1C(=O)Nc1cc(C#N)ncc1N1CCC(Oc2ccc(F)cc2F)CC1` [Example 261, N-(2-cyano-5-(4-(2,4-difluorophenoxy)piperidin-1-yl)pyridin-4-yl)-2-methoxynicotinamide], 7.2.

`COc1cccc(C(=O)Nc2cc(C#N)ccc2N2CCC(Oc3ccc(F)cc3F)CC2)c1OC` [Example 230]: the “pEC50, in vitro inhibition of cAMP” value is reported as 7.1. For `COc1ncccc1C(=O)Nc1cc(C#N)ccc1N1CCN(Cc2cccc(F)c2)CC1` [Example 240, N-(5-cyano-2-(4-(3-fluorobenzyl)piperazin-1-yl)phenyl)-2-methoxynicotinamide] the value was 6.8; for `N#Cc1ccc(N2CCC(Oc3ccc(F)cc3F)CC2)c(NC(=O)c2cc(C3CC3)on2)c1` [Example 125, N-(5-cyano-2-(4-(2,4-difluorophenoxy)piperidin-1-yl)phenyl)-5-cyclopropylisoxazole-3-carboxamide], 6.7; for `COc1c(F)cc(F)cc1C(=O)Nc1cc(C#N)ccc1N1CCC(Oc2ccc(F)cc2F)CC1` [Example 207, N-(5-cyano-2-(4-(2,4-difluorophenoxy)piperidin-1-yl)phenyl)-3,5-difluoro-2-methoxybenzamide], 6.8. For `COc1ncccc1C(=O)Nc1cc(C#N)ccc1N1CCN(Cc2c(F)cccc2F)CC1` [Example 249] the value was 6.4.
